From US9833520B2, “Labeled, non-peptidic, multivalent integrin antagonist compounds; methods for synthesis and uses thereof” (The Methodist Hospital Research Institute, priority 2011, dated 2017)
Values joined by “and” are separate entries in the source; they are usually repeats but may differ in a detail not shown here. Equal entries are not always repeated. “Also recorded” adds a separate entry of the source.

Legend:
B16F10 cells = assay: In vitro cytotoxicity (MTT) assay, B16F10; type: cell-based, mouse; details: B16F10, 100 μg/mL, 24 hr
Description: For cell cytotoxicity assay, the cells were then seeded into 96-well flat-bottomed tissue-culture plates at 1×10^4 cells/well and incubated for 24 hr in humidified atmosphere of 5% (vol./vol.) CO2 at 37° C. in the presence of each compound. The multivalent compound (monomer, dimer, and trimer) sample solutions were diluted with culture medium (1% FBS added) to obtain concentrations in the range of 0.1-100 μg/mL for each compound. The cytotoxic effects of monomer, dimer and trimer compounds were evaluated by adding 100 μL of each sample in 100 μL culture medium to each well. After 24-hrs' incubation, cell viability was evaluated by mitochondrial conversion of 3-(4,5-dimethylthiazol-2-yl)-2,5-diphenyl tetrazolium bromide (MTT assay) (Allison et al., 1985).
Mouse melanoma B16F10 cells (Caliper.CO,) and human melanoma M21 cells were maintained in RPMI 1640 (Caliper) containing 10% (vol./vol.) fetal bovine serum (Invitrogen, Ontario, Canada), 100 U/mL penicillin G, and 100 μg/mL streptomycin for general cell growing condition. For cell cytotoxicity assay, the cells were then seeded into 96-well flat-bottomed tissue-culture plates at 1×10^4 cells/well and incubated for 24 hr or 72 hr in humidified atmosphere of 5% (vol./vol.) CO2 at 37° C. in the presence of each compound. The multivalent compounds (monomer, dimer, trimer) sample solutions were diluted with culture medium (1% FBS added) to obtain the concentration of each compound in the range of 0.1 to 100 μg/mL. The cytotoxic effects of monomer, dimer and trimer compounds solution were evaluated by adding a mixture of 100 μL of each sample and 100 μL of culture medium to each well. After 24-hr or 72-hr incubation, cell viability was evaluated by mitochondrial conversion of 3-(4,5-dimethylthiazol-2-yl)-2,5-diphenyl tetrazolium bromide (MTT assay).

B16F10 melanoma tumor = assay: In vivo antitumor efficacy in B16F10 melanoma tumor-bearing mice; details: for tumor volume against control group (PBS = 100%): 30 mg/kg i.p. every 12 hours; for tumor volume against control group (PBS = 100%) / average tumor volume: 14 days; for reduction in tumor mass compared to control: 30 mg/kg, endpoint
Description: All animal procedures were approved by appropriate Animal Care and Use Committee. The therapeutic test for antitumor efficacy of IA multivalent compounds was evaluated using tumor-bearing mice, which were prepared by bilateral subcutaneous injection in the thighs of nu/nu female mice (6 weeks old; 20-25 g). The mouse melanoma cancer cell line B16F10 was obtained from Caliper and tested negative for rodent pathogens. The cells were maintained in vitro as described above. The mice were inoculated with suspensions of 1×10^6 B16F10 cells in 100 μL complete medium (10% FBS added). Three days after subcutaneous inoculation (the tumor diameter was approximately 3-5 mm, the tumor volume was approximately 50 to 100 mm^3), tumor-bearing mice (n=7 per group) were injected intraperitoneally (i.p.) with each IA compound (monomer, dimer, or trimer) in PBS or PBS alone for control group. All compounds were serially diluted with PBS, and were given 2 times per day (every 12 hr) at a dose of 100 μL of 7.5, 15, 30 mg/kg per injection for 14 days. […] This study design was deliberately chosen to highlight the effect of multivalency. The tumor size was calculated as a×b^2/2, where ‘a’ is the largest and ‘b’ the smallest diameter. In addition, the weight of the mice and the tumors were recorded after harvesting.
A tumor growth model was used to isolate and interpret the effects of pharmacological dose (pharmacophore) and multivalency. This was done using the R software package ‘geepack’ (Højsgaard et al., 2006; Team et al., 2012). The tumor burden (sum of the volumes of left and right tumors) for each animal was first normalized by dividing by the starting volume on the first day of treatment, then taking the logarithm to linearize the data. The pharmacological dose was decoupled from the molecular valency, N, for this model by defining the pharmacophore or pharmacological dose (PD) as PD=N×MD, where MD is the molar dose. The pharmacological excess (compared to monomer) dose (ED) due to multivalency is then: ED=PD-MD=MD×(N−1). The data was fit to a linear model:
All animal procedures were approved by the appropriate regulatory agencies. The therapeutic test for antitumor efficacy of IA multivalent compounds was evaluated using tumor-bearing mice that were prepared by the subcutaneous injection in the dorsa of nu/nu female mice (6 weeks old; 20-25 g). The mouse melanoma cancer cell line B16F10 was obtained from Caliper, and tested negative for rodent pathogens. The cells were maintained in vitro as described above. Mice were inoculated with a suspension of 1×10^6 B16F10 cells in 100 μL complete medium (10% FBS added). Four days after subcutaneous inoculation (the tumor diameter was approximately […], the tumor volume was approximately 50 to 100 mm^3), tumor-bearing mice (n=7 per group) were inoculated intraperitoneally (i.p.) with each IA compound (Monomer, Dimer, Trimer) in PBS or PBS alone for control group. All compounds were serially diluted with PBS and were given 2 times per day (every 12 hr) so that compounds doses would be 100 μL of 7.5, 15, 30 mg/kg (maximum tolerated dose) for 14 days. The tumor size was calculated as: a×b2/2, where a is the largest and b the smallest diameter.

[1] = system: U-87 MG (ATCC HTB-14) glioblastoma cells over-expressing integrin αvβ3; assay: Fluorescence microscopy probe binding assay in U-87 cells; type: cell-based, human; details: blocking dose 20 μmol/L
Description: Fluorescence Microscopy Studies. […] For fluorescence microscopy studies, 1×10^4 U-87 cells were cultured on 35 mm MatTek glass bottom culture dishes. After 24 hr, cells were washed with PBS and then incubated with bivalent-IA-Cy5.5 (200 nM) at 37° C. for 45 min. Integrin specificity of the probe binding was verified by incubating U-87 cells with and without a blocking dose of the non-fluorescent bivalent IA (20 μmol/L). After the incubation period, the cells were washed three times with ice-cold PBS. The fluorescence signal of the cells was recorded using FluoView® 1000 Laser Scanning Confocal Microscope (Olympus, Center Valley, Pa., USA) under a 40× oil-immersion objective, with laser excitation at 675 nm (Cy5.5). A differential interference contrast image was also recorded so that the origin of fluorescent signals could be confirmed.

Row | SMILES | cell viability (B16F10 cells; listed as IA-monomer) | tumor volume against control group (PBS = 100%) (B16F10 melanoma tumor) [%] | average tumor volume (B16F10 melanoma tumor; 30 mg/kg i.p. twice per day) | reduction in tumor mass compared to control (B16F10 melanoma tumor) [%] | average tumor volume (B16F10 melanoma tumor; Example 3, dose not stated) [mm^3] | cell viability (B16F10 cells; listed as IA-dimer) | blocking of bivalent-IA-Cy5.5 binding/endocytosis in U-87 cells [1] | reduction in tumor mass compared to control (B16F10 melanoma tumor; listed as dimer) [%] | cell viability (B16F10 cells) [%] | average tumor volume (B16F10 melanoma tumor; 15 mg/kg i.p. twice per day) [mm^3] | average tumor volume as fraction of PBS-treated control mice (B16F10 melanoma tumor; 15 mg/kg, 14 days after start of treatment) | survival (B16F10 melanoma tumor; 7.5, 15, 30 mg/kg twice per day) | average tumor size smaller than in the IA-dimer group (B16F10 melanoma tumor; compared to IA-dimer group) [fold] | average tumor size smaller than in the IA-monomer group (B16F10 melanoma tumor; compared to IA-monomer group) [fold]
1 | NCCS(=O)(=O)N[C@@H](CNC(=O)c1ccc(OCCNC2=NCCCN2)cc1)C(=O)O [IA, 4-[2-(3,4,5,6-tetrahydropyrimidine-2-ylamino)ethyloxy]benzoyl-2-(S)-aminoethylsulfonyl-amino-β-alanine] | smaller and less significant; also recorded: no significant changes of cell viability | 59.29 | 3300 (s.d. 1200) mm^3 | 36±9 | 5000 | – | – | – | – | – | – | – | – | –
2 | NC(CCCCCC(=O)NCCS(=O)(=O)N[C@@H](CNC(=O)c1ccc(OCCNC2=NCCCN2)cc1)C(=O)O)C(=O)NCCS(=O)(=O)N[C@@H](CNC(=O)c1ccc(OCCNC2=NCCCN2)cc1)C(=O)O (stereo partly drawn) [bivalent IA] | – | 45.33 | 2500 (s.d. 1000) mm^3 | – | 3000 | smaller and less significant; also recorded: no significant changes of cell viability | complete blockage of endocytosis of the imaging probes; also recorded: effectively blocked | 49±8 | – | – | – | – | – | –
3 | O=C(NCCS(=O)(=O)N[C@@H](CNC(=O)c1ccc(OCCNC2=NCCCN2)cc1)C(=O)O)OCCN(CCOC(=O)NCCS(=O)(=O)N[C@@H](CNC(=O)c1ccc(OCCNC2=NCCCN2)cc1)C(=O)O)CCOC(=O)NCCS(=O)(=O)N[C@@H](CNC(=O)c1ccc(OCCNC2=NCCCN2)cc1)C(=O)O [IA trimer] | – | 32.05 | 1800 (s.d. 800) mm^3 and 1800 mm^3 | 71±7 | 2000 | – | – | – | ~80 | 2000 | less than ⅓; also recorded: less than one-third | all of animals survived for at least 2 weeks | 1.7 | 2.3
